Experimental data taken from patent US20240246946A1, “MODULATORS OF TREX1” (Constellation Pharmaceuticals, Inc., priority 2021, published 2024).

Columns and labels:
[1] = target: T1, hTREX1 (Homo sapiens, UniProt Q9NSU2); assay: hTREX1 HCT116 Cell Assay (HCT116 dual cells, Lucia luciferase reporter of Type I interferon induction); assay type: cell-based; conditions: TREX1i 4 h before pBR322/BstNI transfection, read after 48 h
T1 construct: host or cells: HCT116 dual cells
T1 sequence (Q9NSU2 1-314): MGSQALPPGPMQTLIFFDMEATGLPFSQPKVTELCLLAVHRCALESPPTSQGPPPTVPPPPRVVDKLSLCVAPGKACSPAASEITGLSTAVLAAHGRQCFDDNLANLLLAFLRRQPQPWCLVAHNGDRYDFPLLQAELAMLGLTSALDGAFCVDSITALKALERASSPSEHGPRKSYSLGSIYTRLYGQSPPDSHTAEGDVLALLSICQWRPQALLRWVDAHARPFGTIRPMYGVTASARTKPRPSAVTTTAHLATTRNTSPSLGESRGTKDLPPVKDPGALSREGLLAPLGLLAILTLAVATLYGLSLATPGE
In short: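 Type I interferon induction read as secreted Lucia luciferase 48 h after transfecting pBR322/BstNI digest (1 ug/mL, 100 ng/well) into HCT116 dual reporter cells. Compound added 4 h before transfection at up to 0.1% DMSO; cells in DMEM/10% FBS/25 mM HEPES at 37 °C.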

[2] = target: T2, human TREX2 (residues M44-A279) (Homo sapiens, UniProt Q9BQ50); assay: hTREX2 Biochemical Assay (fluorescence, dsDNA substrate degradation); conditions: biochemical selectivity for hTREX1 vs hTREX2
T2 construct: human TREX2 (residues M44-A279, expressed in E. coli); made in house; host or cells: E. coli
T2 sequence (Q9BQ50 44-279 isoform Q9BQ50-1): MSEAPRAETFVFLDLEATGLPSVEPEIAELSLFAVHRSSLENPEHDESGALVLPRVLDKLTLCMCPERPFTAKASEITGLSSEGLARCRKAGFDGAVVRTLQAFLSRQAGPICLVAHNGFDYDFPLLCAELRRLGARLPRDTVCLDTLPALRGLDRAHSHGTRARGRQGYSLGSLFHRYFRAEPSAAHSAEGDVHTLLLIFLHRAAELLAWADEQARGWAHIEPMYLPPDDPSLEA
In short: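 Fluorogenic dsDNA degradation read at 615 nm (570 nm excitation) after EDTA quench. Final 60 nM substrate, 50 pM His-Tev-tagged enzyme, 5 mM MgCl2, pH 7.4, 1.0% DMSO; 4 h compound–enzyme preincubation then 18 h reaction, both 25 °C; 10-point titration.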

[3] = target: T3, full length human TREX1 (Homo sapiens, UniProt Q9NSU2); assay: hTREX1 Biochemical Assay (fluorescence, dsDNA substrate degradation); conditions: biochemical, read-out: hTREX1 IC50
T3 construct: N-terminally His-Tev tagged full length human TREX1; made in house; host or cells: E. coli
T3 sequence (Q9NSU2 1-314): T1 sequence (Q9NSU2 1-314)
In short: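 Fluorescence rises as enzyme degrades a quenched TEX615-labelled dsDNA substrate (60 nM) in 50 mM Tris, 150 mM NaCl, 5 mM MgCl2, pH 7.4. Full-length His-Tev-tagged human TREX1, 4 pM, sits with compound 4 hours at 25° C before substrate; reaction 18 hours, stopped with EDTA.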

Structure (SMILES) | IC50 [1] [nM] | hTREX1 vs hTREX2 selectivity [2] | IC50 [3] [nM]
CC(c1nc(C(=O)Nc2cnoc2)c(O)c(=O)n1C)C(c1cnn(C)c1)c1ccccc1C#N (single isomer, unassigned) [Example 2 D1E1] | < 10 | C (C = >50 fold selective for hTREX1) | < 1
CC(c1nc(C(=O)Nc2cnoc2)c(O)c(=O)n1C)C(c1ccccc1C#N)c1cn(C)nc1C#N (single isomer, unassigned) [Example 10 D1E1] | < 10 | C (C = >50 fold selective for hTREX1) | < 1
CCn1cc(C(c2ccccc2C#N)C(C)c2nc(C(=O)Nc3cnoc3)c(O)c(=O)n2C)cn1 (single isomer, unassigned) [Example 13 D1E1] | < 10 | C (C = >50 fold selective for hTREX1) | < 1
CC(c1nc(C(=O)Nc2cnoc2)c(O)c(=O)n1C)C(c1cnn(C)c1)c1cc(F)ccc1C#N (single isomer, unassigned) [Example 14 D1E2] | < 10 | C (C = >50 fold selective for hTREX1) | < 1
CCn1cc(C(c2ccc(F)cc2C#N)C(C)c2nc(C(=O)Nc3cnoc3)c(O)c(=O)n2C)cn1 (single isomer, unassigned) [Example 16 D1E1] | < 10 | C (C = >50 fold selective for hTREX1) | < 1
CCn1cc(C(c2cc(F)ccc2C#N)C(C)c2nc(C(=O)Nc3cnoc3)c(O)c(=O)n2C)cn1 (single isomer, unassigned) [Example 17 D1E2] | < 10 | – | < 1
CC(c1nc(C(=O)Nc2cnoc2)c(O)c(=O)n1C)C(c1cnn(CC(F)(F)F)c1)c1ccccc1C#N (single isomer, unassigned) [Example 22 D1E1] | < 10 | – | < 1
CC(c1nc(C(=O)Nc2cnoc2)c(O)c(=O)n1C)C(c1cnn(CC2CC2)c1)c1ccccc1C#N (single isomer, unassigned) [Example 23 D1E2] | 10 to 100 | C (C = >50 fold selective for hTREX1) | < 1
CC(c1nc(C(=O)Nc2cnoc2)c(O)c(=O)n1C)C(c1cnn(C)c1)c1cc(Cl)ccc1C#N (single isomer, unassigned) [Example 26 D1E2] | 10 to 100 | – | < 1
CC(c1nc(C(=O)Nc2cnoc2)c(O)c(=O)n1C)C(c1cnn(C(F)F)c1)c1ccccc1C#N (single isomer, unassigned) [Example 38 D1E1] | < 10 | – | < 1
Cc1cncc(C(c2ccccc2C#N)C(C)c2nc(C(=O)Nc3cnoc3)c(O)c(=O)n2C)n1 (single isomer, unassigned) [Example 53 D1E2] | < 10 | C (C = >50 fold selective for hTREX1) | < 1
Cc1nn(C)cc1C(c1cc(F)ccc1C#N)C(C)c1nc(C(=O)Nc2cnoc2)c(O)c(=O)n1C (single isomer, unassigned) [Example 57 D1E2] | < 10 | C (C = >50 fold selective for hTREX1) | < 1
CC(c1nc(C(=O)Nc2cnoc2)c(O)c(=O)n1C)C(c1cnn(C)c1)c1ccccc1Cl (single isomer, unassigned) [Example 77 D1E1] | 10 to 100 | C (C = >50 fold selective for hTREX1) | < 1
Cc1nn(C)c(C)c1C(c1ccccc1C#N)C(C)c1nc(C(=O)Nc2cnoc2)c(O)c(=O)n1C (single isomer, unassigned) [Example 78 D1E1] | < 10 | – | < 1
Cc1ncc(C(c2ccccc2C#N)C(C)c2nc(C(=O)Nc3cnoc3)c(O)c(=O)n2C)nc1C (single isomer, unassigned) [Example 81 D1E2] | < 10 | C (C = >50 fold selective for hTREX1) | < 1
CC(c1nc(C(=O)Nc2cnoc2)c(O)c(=O)n1C)C(c1ccccc1C#N)c1cn(C)nc1F (single isomer, unassigned) [Example 91 D1E1] | < 10 | B (B = 25 to 50-fold selective for hTREX1) | < 1
CC(c1nc(C(=O)Nc2cnoc2)c(O)c(=O)n1C)C(c1cnn(C(C)C)c1)c1ccccc1C#N (single isomer, unassigned) [Example 105 D1E2] | < 10 | B (B = 25 to 50-fold selective for hTREX1) | < 1
Cc1cc(C(c2cc(F)ccc2C#N)C(C)c2nc(C(=O)Nc3cnoc3)c(O)c(=O)n2C)n(C)n1 (single isomer, unassigned) [Example 111 D1E2] | 10 to 100 | B (B = 25 to 50-fold selective for hTREX1) | < 1
Cc1cnc(C(c2cc(F)ccc2C#N)C(C)c2nc(C(=O)Nc3cnoc3)c(O)c(=O)n2C)cn1 (single isomer, unassigned) [Example 115 D1E2] | < 10 | B (B = 25 to 50-fold selective for hTREX1) | < 1
Cc1nc(C)c(C(c2ccccc2C#N)C(C)c2nc(C(=O)Nc3cnoc3)c(O)c(=O)n2C)nc1C (single isomer, unassigned) [Example 122 D1E1] | < 10 | C (C = >50 fold selective for hTREX1) | < 1
Cc1ncc(C(c2cc(F)ccc2C#N)C(C)c2nc(C(=O)Nc3cnoc3)c(O)c(=O)n2C)nc1C (single isomer, unassigned) [Example 124 D1E2] | 10 to 100 | B (B = 25 to 50-fold selective for hTREX1) | < 1
Cc1ncc(C(c2ccccc2Cl)C(C)c2nc(C(=O)Nc3cnoc3)c(O)c(=O)n2C)nc1C (single isomer, unassigned) [Example 125 D1E2] | < 10 | B (B = 25 to 50-fold selective for hTREX1) | < 1
CCn1c(C(C)C(c2cnn(C)c2)c2ccccc2C#N)nc(C(=O)Nc2cnoc2)c(O)c1=O (single isomer, unassigned) [Example 149 D1E2] | 10 to 100 | C (C = >50 fold selective for hTREX1) | < 1
C[C@H](c1nc(C(=O)Nc2cnoc2)c(O)c(=O)n1C)[C@@H](c1cc(F)ccc1C#N)c1cn(C)nc1C#N [Example 59 D1E2] | < 10 | C (C = >50 fold selective for hTREX1) | < 1
